From the supplement of paper PMC10307832

Assays:
Experiment in all cases: relative viability (nuclei count vs DMSO), 5 days (fraction); higher = more cells survive
[1] = compound: CC1=CC(=CC=C1)NC2=NC(=CS2)C3=CC=NC=C3 + Cc1nc(NC(=O)N2CCC[C@H]2C(N)=O)sc1-c1ccnc(C(C)(C)C(F)(F)F)c1 [Alpelisib] (partner 2 µM)
How it was run: (§1)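 Values are medians from duplicate plates. Each reflects relative viability, defined as the nuclei count of treated wells over that of vehicle wells. Lung cancer cell lines in 1536-well plates were pin-tool dosed one day after seeding with one drug alone or with a fixed anchor-drug dose plus five library-drug doses (not always all listed) in √10 steps, then fixed, stained and imaged at 4× after 5 days.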

[2] = compound: CC1=CC(=CC=C1)NC2=NC(=CS2)C3=CC=NC=C3 + Cc1nc(Nc2ncc(C(=O)Nc3c(C)cccc3Cl)s2)cc(N2CCN(CCO)CC2)n1 [Dasatinib] (partner 0.075 µM)
How it was run: as §1

[3] = compound: Cc1ccc(NC(=O)c2ccc(CN3CCN(C)CC3)cc2)cc1Nc1nc(-c2cccnc2)cs1 [Masitinib] + COc1cc2c(Oc3ccc(NC(=O)C4(C(=O)Nc5ccc(F)cc5)CC4)cc3F)ccnc2cc1OCCCN1CCOCC1 [Foretinib] (partner 0.25 µM)
How it was run: as §1

[4] = compound: Cc1ccc(NC(=O)c2ccc(CN3CCN(C)CC3)cc2)cc1Nc1nc(-c2cccnc2)cs1 [Masitinib] + C[C@@H](Oc1cc(-c2cnn(C3CCNCC3)c2)cnc1N)c1c(Cl)ccc(F)c1Cl [Crizotinib] (partner 1 µM)
How it was run: as §1

| Cell Line | relative viability ([1]; first compound 0.08 µM) | relative viability ([1]; first compound 0.253 µM) | relative viability ([1]; first compound 0.8 µM) | relative viability ([1]; first compound 2.53 µM) | relative viability ([1]; first compound 8 µM) | relative viability ([2]; first compound 0.253 µM) | relative viability ([2]; first compound 0.8 µM) | relative viability ([2]; first compound 2.53 µM) | relative viability ([2]; first compound 8 µM) | relative viability ([3]; first compound 0.01 µM) | relative viability ([3]; first compound 0.03162 µM) | relative viability ([3]; first compound 0.1 µM) | relative viability ([3]; first compound 0.3162 µM) | relative viability ([3]; first compound 1 µM) | relative viability ([4]; first compound 0.01 µM) | relative viability ([4]; first compound 0.03162 µM) | relative viability ([4]; first compound 0.1 µM) | relative viability ([4]; first compound 0.3162 µM) | relative viability ([4]; first compound 1 µM) | relative viability ([2]; first compound 0.08 µM) |
| --- | --- | --- | --- | --- | --- | --- | --- | --- | --- | --- | --- | --- | --- | --- | --- | --- | --- | --- | --- | --- |
| HCC-78 | 0.26 | 0.284 | 0.365 | 0.317 | 0.366 | 0.376 | 0.398 | 0.379 | 0.523 | 0.554 | 0.551 | 0.548 | 0.521 | 0.451 | 0.356 | 0.445 | 0.334 | 0.288 | 0.293 |  |
| HCC-366 | 0.306 | 0.215 | 0.275 | 0.317 | 0.209 | 0.567 | 0.625 | 0.48 | 0.365 |  | 0.933 |  | 0.961 | 0.998 | 0.467 | 0.517 | 0.721 | 0.334 | 0.444 | 0.543 |
| HCC-827 | 0.946 | 0.913 | 0.907 | 1.03 | 0.836 | 0.352 | 0.437 | 0.455 | 0.464 | 1.03 | 1.05 | 1.06 | 1 | 1.06 | 0.725 | 0.961 | 0.95 | 0.893 | 0.895 | 0.422 |
| HOP-62 | 0.932 | 0.809 | 1.1 | 1.06 | 1.17 | 0.605 | 0.527 | 0.594 | 0.449 | 1.02 | 1.04 | 1.22 | 1.17 | 1.14 | 0.659 | 0.88 | 1.09 | 1.08 | 0.898 | 0.52 |
| IA-LM | 0.706 |  | 0.815 | 0.533 | 0.673 |  |  |  |  | 1.24 | 1.09 | 1.13 | 1.12 | 1.36 |  |  | 0.871 | 0.618 | 0.84 |  |
| LC-2-ad | 0.859 | 0.698 | 0.812 | 0.813 | 0.817 |  | 0.59 | 0.431 | 0.478 | 0.87 | 0.859 | 1.09 | 0.847 | 0.825 | 0.347 | 0.399 | 0.466 | 0.473 | 0.373 | 0.522 |
| LCLC-97TM1 |  |  | 0.298 | 0.258 | 0.238 | 0.824 | 0.963 | 0.856 | 1.01 |  | 0.966 | 0.941 | 1.08 | 0.874 | 0.27 | 0.31 | 0.394 | 0.288 | 0.238 | 0.898 |
| LCLC-103H | 0.774 | 0.875 | 0.909 | 0.967 | 0.883 | 0.44 | 0.41 | 0.386 | 0.385 | 0.743 | 0.684 | 0.773 | 0.703 | 0.735 | 0.783 | 1.08 | 0.891 | 0.969 | 1.03 | 0.517 |
| LK-2 | 0.898 | 1.09 | 1.33 |  | 1.19 | 0.241 | 0.421 |  | 0.327 | 1.19 | 1.3 | 1.4 | 1.13 | 1.22 | 0.248 | 0.246 | 0.21 | 0.217 | 0.188 |  |
| LOU-NH91 | 0.617 | 0.686 | 0.59 | 0.698 | 0.592 | 0.51 | 0.432 | 0.472 | 0.458 | 0.886 | 0.908 | 0.958 | 0.858 | 0.897 | 0.706 | 0.683 | 0.768 | 0.73 | 0.712 | 0.464 |
| LU99A |  | 0.49 | 0.433 | 0.428 | 0.443 | 0.525 | 0.521 | 0.517 | 0.479 | 0.901 | 0.823 | 0.877 | 1.01 | 0.822 | 0.592 | 0.629 | 0.62 | 0.639 | 0.527 | 0.543 |
| NCI-H522 |  |  |  |  |  | 0.792 | 0.933 | 0.809 | 0.983 |  |  |  |  |  |  |  |  |  |  | 0.851 |
| NCI-H1299 | 1.04 | 1.01 | 1.05 | 1.05 | 0.988 |  |  |  |  | 1.04 | 1.06 | 1.09 | 1.09 | 1.07 | 0.947 | 0.989 | 1.02 | 1.01 | 0.96 |  |
| NCI-H1395 | 0.838 | 0.909 | 1.23 | 1.01 | 0.992 | 0.372 | 0.402 | 0.397 | 0.404 | 0.969 | 1 | 1.06 | 0.754 | 0.915 |  |  |  |  |  | 0.364 |
| NCI-H1623 |  |  |  |  |  | 0.506 | 0.625 | 0.521 | 0.575 | 0.771 | 0.739 | 0.771 | 0.707 | 0.735 |  |  |  |  |  | 0.525 |
| NCI-H1650 |  |  |  |  |  | 0.28 | 0.366 | 0.228 | 0.221 | 0.984 | 0.914 | 1.09 | 0.902 | 1.17 | 0.958 | 1.09 | 0.876 | 0.862 | 1.02 | 0.325 |
| NCI-H1703 | 0.391 | 0.294 | 0.408 | 0.354 | 0.323 |  |  |  |  | 0.315 | 0.308 | 0.287 | 0.342 | 0.328 | 0.483 | 0.758 | 0.293 | 0.492 | 0.139 |  |
| NCI-H1792 | 0.628 | 0.523 | 0.567 | 0.443 | 0.589 |  | 0.832 | 0.54 | 0.63 |  |  |  |  |  | 0.866 | 0.449 | 0.993 | 0.829 | 1.05 | 0.689 |
| NCI-H1793 |  | 0.625 | 0.704 | 0.69 | 0.79 | 0.365 | 0.454 | 0.459 | 0.356 | 0.63 | 0.684 | 0.973 | 0.519 | 0.61 |  |  |  |  |  | 0.343 |
| NCI-H2342 |  |  |  |  |  | 0.303 | 0.302 | 0.278 | 0.311 | 1.09 | 0.875 | 1.08 | 1.13 | 1.01 |  |  |  |  |  | 0.306 |
| SW 900 |  |  |  |  |  | 0.477 | 0.527 | 0.615 | 0.383 | 0.757 | 0.846 | 1.04 | 0.798 | 1.03 |  |  |  |  |  | 0.358 |
